From patent US20210186970A1, “SELECTIVE CALCIUM CHANNEL ANTAGONISTS” (Northwestern University, priority 2011, published 2021)
Where two headings read alike, the source gives them in different places.

Columns and labels:
[1] = target: T1, Cav1.3 L-type Ca channels (Rattus norvegicus, UniProt P27732); experiment: FLIPR Fluo-8 calcium assay, Cav1.3 channel inhibition in HEK293 cells; type: cell-based
T1 construct: expressed in transfected cells; host or cells: HEK293

[2] = target: Cav1.2 L-type Ca channels (Oryctolagus cuniculus, UniProt P15381); experiment: FLIPR Fluo-8 calcium assay, Cav1.2 channel inhibition in HEK293 cells
Chain of Cav1.2 L-type Ca channels (P15381 whole entry): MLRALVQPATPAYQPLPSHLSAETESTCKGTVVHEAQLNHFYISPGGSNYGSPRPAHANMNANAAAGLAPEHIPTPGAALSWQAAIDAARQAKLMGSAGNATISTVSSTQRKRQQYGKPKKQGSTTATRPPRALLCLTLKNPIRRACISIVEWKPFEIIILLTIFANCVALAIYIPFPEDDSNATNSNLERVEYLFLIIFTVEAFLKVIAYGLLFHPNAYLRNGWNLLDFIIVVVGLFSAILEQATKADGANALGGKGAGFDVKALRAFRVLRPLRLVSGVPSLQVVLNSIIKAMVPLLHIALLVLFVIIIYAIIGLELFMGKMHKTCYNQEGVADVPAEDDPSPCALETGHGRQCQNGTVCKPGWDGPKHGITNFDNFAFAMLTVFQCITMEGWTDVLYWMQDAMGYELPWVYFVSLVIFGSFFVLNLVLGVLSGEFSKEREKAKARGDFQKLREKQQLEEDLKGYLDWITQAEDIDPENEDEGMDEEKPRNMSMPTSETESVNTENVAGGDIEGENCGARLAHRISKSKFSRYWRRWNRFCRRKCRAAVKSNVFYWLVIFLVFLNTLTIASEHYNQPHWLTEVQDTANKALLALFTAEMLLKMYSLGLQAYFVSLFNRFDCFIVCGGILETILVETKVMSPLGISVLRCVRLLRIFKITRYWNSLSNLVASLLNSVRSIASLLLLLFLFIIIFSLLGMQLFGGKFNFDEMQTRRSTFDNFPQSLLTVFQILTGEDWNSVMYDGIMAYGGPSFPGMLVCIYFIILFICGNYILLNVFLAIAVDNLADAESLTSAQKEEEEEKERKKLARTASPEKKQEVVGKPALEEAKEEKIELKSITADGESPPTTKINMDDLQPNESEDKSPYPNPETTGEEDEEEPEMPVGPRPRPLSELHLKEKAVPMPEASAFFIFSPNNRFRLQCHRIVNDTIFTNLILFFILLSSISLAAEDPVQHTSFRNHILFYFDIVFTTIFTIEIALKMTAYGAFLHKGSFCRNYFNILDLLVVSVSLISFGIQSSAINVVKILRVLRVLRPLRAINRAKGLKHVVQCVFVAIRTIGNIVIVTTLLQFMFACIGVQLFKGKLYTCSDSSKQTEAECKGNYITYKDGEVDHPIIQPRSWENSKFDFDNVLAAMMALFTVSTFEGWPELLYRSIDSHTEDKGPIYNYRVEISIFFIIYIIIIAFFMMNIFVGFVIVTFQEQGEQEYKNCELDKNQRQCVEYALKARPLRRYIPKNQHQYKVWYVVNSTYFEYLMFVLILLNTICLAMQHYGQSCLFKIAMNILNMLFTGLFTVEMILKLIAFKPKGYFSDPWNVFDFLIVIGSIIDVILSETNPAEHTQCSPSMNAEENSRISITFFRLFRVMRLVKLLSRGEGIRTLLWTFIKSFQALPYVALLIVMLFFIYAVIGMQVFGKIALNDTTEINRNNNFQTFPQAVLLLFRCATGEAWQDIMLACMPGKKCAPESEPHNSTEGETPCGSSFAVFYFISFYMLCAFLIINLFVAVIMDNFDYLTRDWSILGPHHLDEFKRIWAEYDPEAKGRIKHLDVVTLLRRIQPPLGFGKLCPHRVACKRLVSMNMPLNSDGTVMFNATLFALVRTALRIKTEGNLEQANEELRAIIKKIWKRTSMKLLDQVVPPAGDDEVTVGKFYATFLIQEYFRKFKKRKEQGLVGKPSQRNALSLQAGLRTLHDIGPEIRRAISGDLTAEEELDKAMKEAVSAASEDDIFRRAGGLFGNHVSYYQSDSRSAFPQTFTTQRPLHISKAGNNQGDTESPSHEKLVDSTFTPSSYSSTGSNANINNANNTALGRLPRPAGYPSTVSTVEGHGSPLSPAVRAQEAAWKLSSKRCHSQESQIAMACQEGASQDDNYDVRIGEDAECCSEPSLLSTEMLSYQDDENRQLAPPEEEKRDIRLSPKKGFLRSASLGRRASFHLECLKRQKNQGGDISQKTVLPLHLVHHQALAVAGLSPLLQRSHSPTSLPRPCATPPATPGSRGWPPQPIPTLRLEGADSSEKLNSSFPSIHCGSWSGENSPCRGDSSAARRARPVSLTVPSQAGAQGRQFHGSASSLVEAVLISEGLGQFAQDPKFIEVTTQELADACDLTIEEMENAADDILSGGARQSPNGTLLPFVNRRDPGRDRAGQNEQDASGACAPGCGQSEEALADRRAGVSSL
Chain of Cav1.2 L-type Ca channels (P54284 whole entry partner): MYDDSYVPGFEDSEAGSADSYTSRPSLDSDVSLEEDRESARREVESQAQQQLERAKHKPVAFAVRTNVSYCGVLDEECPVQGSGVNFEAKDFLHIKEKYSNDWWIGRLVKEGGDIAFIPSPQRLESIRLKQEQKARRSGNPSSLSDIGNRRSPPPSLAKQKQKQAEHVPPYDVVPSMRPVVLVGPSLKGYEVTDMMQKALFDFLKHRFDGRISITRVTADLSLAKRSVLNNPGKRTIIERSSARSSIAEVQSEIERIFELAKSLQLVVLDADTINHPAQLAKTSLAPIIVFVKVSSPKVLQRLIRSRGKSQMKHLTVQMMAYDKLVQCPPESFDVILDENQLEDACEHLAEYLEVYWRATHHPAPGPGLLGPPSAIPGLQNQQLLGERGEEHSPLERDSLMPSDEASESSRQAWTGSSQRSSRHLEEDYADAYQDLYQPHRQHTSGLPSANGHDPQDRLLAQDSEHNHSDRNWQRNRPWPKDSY
Chain of Cav1.2 L-type Ca channels (P54289 25-956 partner limits assumed): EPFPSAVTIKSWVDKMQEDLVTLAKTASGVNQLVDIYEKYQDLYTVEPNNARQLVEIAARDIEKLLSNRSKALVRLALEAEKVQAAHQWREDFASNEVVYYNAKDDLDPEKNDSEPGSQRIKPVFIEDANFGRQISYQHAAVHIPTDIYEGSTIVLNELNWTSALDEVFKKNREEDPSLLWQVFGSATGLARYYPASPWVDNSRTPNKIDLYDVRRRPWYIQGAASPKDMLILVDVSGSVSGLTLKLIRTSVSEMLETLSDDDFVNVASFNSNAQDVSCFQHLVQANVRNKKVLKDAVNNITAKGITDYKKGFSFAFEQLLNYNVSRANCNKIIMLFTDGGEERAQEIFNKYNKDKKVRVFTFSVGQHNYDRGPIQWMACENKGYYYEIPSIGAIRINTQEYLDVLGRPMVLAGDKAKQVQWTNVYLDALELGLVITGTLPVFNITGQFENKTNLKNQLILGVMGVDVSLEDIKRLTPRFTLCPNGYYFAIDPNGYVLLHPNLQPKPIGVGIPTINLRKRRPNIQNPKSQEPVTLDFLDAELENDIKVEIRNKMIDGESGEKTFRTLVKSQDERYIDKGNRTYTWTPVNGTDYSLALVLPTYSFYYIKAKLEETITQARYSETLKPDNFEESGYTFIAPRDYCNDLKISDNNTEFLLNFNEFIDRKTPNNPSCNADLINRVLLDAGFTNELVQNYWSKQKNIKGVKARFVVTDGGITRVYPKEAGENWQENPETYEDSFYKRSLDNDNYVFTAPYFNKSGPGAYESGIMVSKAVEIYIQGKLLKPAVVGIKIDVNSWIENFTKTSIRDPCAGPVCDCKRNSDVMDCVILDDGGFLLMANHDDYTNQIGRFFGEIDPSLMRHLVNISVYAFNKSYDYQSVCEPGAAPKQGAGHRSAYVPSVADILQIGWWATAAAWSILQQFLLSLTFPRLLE
Chain of Cav1.2 L-type Ca channels (P54289 957-1103 partner limits assumed): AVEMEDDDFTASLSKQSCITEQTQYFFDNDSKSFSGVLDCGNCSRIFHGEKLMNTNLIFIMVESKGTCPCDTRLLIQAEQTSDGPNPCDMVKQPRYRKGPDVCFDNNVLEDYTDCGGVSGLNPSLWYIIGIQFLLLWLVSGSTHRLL

[3] = IC50 (μM) Cav1.3, Table 4, 12 concentration points (0.1 nM~100 μM) in duplicate
[4] = IC50 (μM) Cav1.3, third library, FLIPR, HEK293, value (±SD)
[5] = Table 4, Cav1.3 relative to Cav1.2 from IC50 values
[6] = third library, ratio of IC50 Cav1.2 to Cav1.3
[7] = IC50 (μM) Cav1.2, Table 4, 12 concentration points (0.1 nM~100 μM) in duplicate
[8] = IC50 (μM) Cav1.2, third library, FLIPR, HEK293, value (±SD)
[9] = IC50 (μM) CaV1.3, first library, FLIPR, HEK293, value (±SD)
[10] = first library, ratio of IC50 Cav1.2 to Cav1.3
[11] = IC50 (μM) CaV1.2, first library, FLIPR, HEK293, value (±SD)
[12] = first library, FLIPR, HEK293, value (±SD), read-out: IC50 (μM) CaV1.3
[13] = IC50 (μM) Cav1.3, second library, FLIPR, HEK293, value (±SD)
[14] = second library, ratio of IC50 Cav1.2 to Cav1.3
[15] = IC50 (μM) Cav1.2, second library, FLIPR, HEK293, value (±SD)
[16] = Table 4, 12 concentration points (0.1 nM~100 μM) in duplicate, read-out: IC50 (μM) Cav1.3
[17] = third library, FLIPR, HEK293, value (±SD), read-out: IC50 (μM) Cav1.3

SMILES	IC50 [1, 9] [µM]	Selectivity [1, 10]	IC50 [2, 11] [µM]	also measured
O=C1CC(=O)N(C2CCCC2)C(=O)N1CCc1cccc(C(F)(F)F)c1 [Compound 7, N-cyclopentyl-N′-(3-thrifluoromethylphenethyl)-pyrimidine-2,4,6-(1H,3H,5H)-trione]				IC50 [1, 3]: 1.1 µM; IC50 [1, 4]: 1.1 µM; Selectivity [1, 5]: 305; Selectivity [1, 6]: 305.4; melting point: 97 to 98 °C; IC50 [2, 7]: 326 µM; IC50 [2, 8]: 326 µM
O=C1CC(=O)N(C2CCCCC2)C(=O)N1CCc1ccc(Cl)cc1 [Compound 1, N-(4-chlorophenethyl)-N′-cyclohexyl-pyrimidine-2,4,6-(1H,3H,5H)-trione]	1.1	35.1	38.8	IC50 [1, 3]: 1.1 µM; Selectivity [1, 5]: 35; melting point: 146 to 148 °C; IC50 [2, 7]: 38.8 µM
O=C1CC(=O)N(C2CCCc3ccccc32)C(=O)N1CCCCc1ccccc1 (stereo not drawn) [Compound 50]	36.5	0.9	34.1	
O=C1CC(=O)N(C2CCCCCC2)C(=O)N1CCc1cccc(C(F)(F)F)c1 [Compound 90]				IC50 [1, 4]: 1.7 µM; Selectivity [1, 6]: 3.4; IC50 [2, 8]: 5.7 µM
CCCCCCCCN1C(=O)CC(=O)N(CCCc2ccccc2)C1=O [Compound 60]		2.5	2.6	IC50 [1, 12]: 1.1 µM
Cc1ccc(CCN2C(=O)CC(=O)N(C3CCCCC3)C2=O)cc1 [Compound 74]				IC50 [1, 13]: 1.8 µM; Selectivity [1, 14]: 3.4; IC50 [2, 15]: 6.1 µM
O=C1CC(=O)N(C2Cc3ccccc3C2)C(=O)N1CCc1ccc(Cl)cc1 [Compound 31]	1.3	2.2	3	
O=C1CC(=O)N(CCc2cccc(F)c2)C(=O)N1CCCc1ccccc1 [Compound 56]	1.6	1.5	2.5	
O=C1CC(=O)N(CCc2ccc(Cl)cc2)C(=O)N1CCc1ccc(Cl)cc1 [Compound 11]	1.8	1.2	2.1	
O=C1CC(=O)N(CCc2ccc(Cl)cc2)C(=O)N1CCc1ccc(F)cc1 [Compound 18]	1.1	3.1	3.3	
O=C1CC(=O)N(C2CCCCC2)C(=O)N1CCc1ccc(F)cc1 [Compound 68]	9.4	17.7	166	
O=C1CC(=O)N(CCc2cccc(C(F)(F)F)c2)C(=O)N1CCCCc1ccccc1 [Compound 43]	0.5	2.3	1.1	
O=C1CC(=O)N(CC2CCCCC2)C(=O)N1CCc1cccc(Cl)c1 [Compound 109]				IC50 [1, 4]: 1.5 µM; Selectivity [1, 6]: 30.5; IC50 [2, 8]: 44.6 µM
O=C1CC(=O)N(CCc2cccc([N+](=O)[O-])c2)C(=O)N1CCc1ccc(Cl)cc1 [Compound 24]	2.7	1.0	2.6	
O=C1CC(=O)N(C23CC4CC(CC(C4)C2)C3)C(=O)N1CCc1ccc(Cl)cc1 [Compound 114]				IC50 [1, 4]: 3.2 µM; Selectivity [1, 6]: 0.8; IC50 [2, 8]: 2.6 µM
O=C1CC(=O)N([C@@H]2C[C@@H]3CC[C@H]2C3)C(=O)N1CCc1cccc(Cl)c1 (racemic) [Compound 9, N-(3-chlorophenethyl)-N′-(+)-endo-norbornyl-pyrimidine-2,4,6-(1H,3H,5H)-trione]				IC50 [1, 16]: 0.8 µM; IC50 ([1]; read-out: IC50 with Cav1.3): 0.8 µM; IC50 [1, 17]: 0.8 µM; IC50 [2, 7]: 20.1 µM; IC50 [2, 8]: 20.1 µM
N#Cc1ccc(CCN2C(=O)CC(=O)N(C3CCCCC3)C2=O)cc1 [Compound 78]				IC50 [1, 13]: 49.8 µM; Selectivity [1, 14]: 1.1; IC50 [2, 15]: 56 µM
O=C1CC(=O)N(C2CCCCC2)C(=O)N1Cc1cccc([N+](=O)[O-])c1 [Compound 83]				IC50 [1, 13]: 48.2 µM; Selectivity [1, 14]: 1.2; IC50 [2, 15]: 59.5 µM
Cc1ccc(CCN2C(=O)CC(=O)N(CCc3ccc(Cl)cc3)C2=O)cc1 [Compound 17]	1.1	6.7	7.1	
O=C1CC(=O)N(C2CCCc3ccccc32)C(=O)N1CCc1ccc(Cl)cc1 (stereo not drawn) [Compound 30]	5.6	2.3	12.8	
O=C1CC(=O)N(C2CC3CCC2C3)C(=O)N1CCc1ccc(Cl)cc1 (racemic) [Compound 10, N-(4-chlorophenethyl)-N′-(+)-endo-norbornyl-pyrimidine-2,4,6-(1H,3H,5H)-trione]				IC50 [1, 16]: 0.6 µM; IC50 ([1]; read-out: IC50 with Cav1.3): 0.6 µM; IC50 [1, 17]: 0.6 µM; IC50 [2, 7]: 13.5 µM; IC50 [2, 8]: 13.5 µM
O=C1CC(=O)N(CCCc2ccccc2)C(=O)N1CCCCc1ccccc1 [Compound 49]		2.0	2.6	IC50 [1, 12]: 1.3 µM
O=C1CC(=O)N(C2CCCCC2)C(=O)N1CCc1ccc(Br)cc1 [Compound 77]				IC50 [1, 13]: 0.8 µM; Selectivity [1, 14]: 26.4; IC50 [2, 15]: 21.3 µM
O=C1CC(=O)N(CCc2ccc(Cl)c(Cl)c2)C(=O)N1CCCc1ccccc1 [Compound 54]	4.3	1.6	6.9	

SMILES	IC50 [1, 9] [µM]	Selectivity [1, 10]	IC50 [2, 11] [µM]	also measured
O=C1CC(=O)N(CCc2ccc([N+](=O)[O-])cc2)C(=O)N1CCCCc1ccccc1 [Compound 46]	3.5	1.2	4.1	
O=C1CC(=O)N(CCc2cccc([N+](=O)[O-])c2)C(=O)N1CCCCc1ccccc1 [Compound 47]	3	1.0	3	
Cc1ccc(CCN2C(=O)CC(=O)N(C3CCCC3)C2=O)cc1 [Compound 98]				IC50 [1, 4]: 1.7 µM; Selectivity [1, 6]: 20.7; IC50 [2, 8]: 35.8 µM
O=C1CC(=O)N(C2CCCC2)C(=O)N1CCc1ccc(Cl)cc1 [Compound 29]	1.4	16.4	22.4	
CCCCCCCCN1C(=O)CC(=O)N(CCc2ccc3ccccc3c2)C1=O [Compound 67]		4.8	8.9	IC50 [1, 12]: 1.9 µM
O=C1CC(=O)N(CCc2cccc([N+](=O)[O-])c2)C(=O)N1CCCc1ccccc1 [Compound 58]	10.4	0.9	9.5	
O=C1CC(=O)N(C2CCCCC2)C(=O)N1CCOc1ccccc1 [Compound 88]				IC50 [1, 13]: 9.5 µM; Selectivity [1, 14]: 1.2; IC50 [2, 15]: 11.8 µM
CC(C)(C)N1C(=O)CC(=O)N(CCc2cccc(C(F)(F)F)c2)C1=O [Compound 106]				IC50 [1, 4]: 1.1 µM; Selectivity [1, 6]: 5.7; IC50 [2, 8]: 6.1 µM
COC(=O)[C@H](CC(C)C)N1C(=O)CC(=O)N(CCc2ccc(Cl)cc2)C1=O [Compound 36]	20.6	0.8	17.1	
O=C1CC(=O)N(C2CCCCCC2)C(=O)N1CCc1ccc(Cl)cc1 [Compound 92]				IC50 [1, 4]: 2.2 µM; Selectivity [1, 6]: 15.0; IC50 [2, 8]: 32.8 µM
O=C1CC(=O)N(C2Cc3ccccc3C2)C(=O)N1CCCCc1ccccc1 [Compound 51]		1.5	4.9	IC50 [1, 12]: 3.3 µM
CCCCCCCCN1C(=O)CC(=O)N(CCc2ccc(Cl)cc2)C1=O [Compound 28]	1.5	1.9	2.8	
O=C1CC(=O)N(CCc2ccc(Cl)c(Cl)c2)C(=O)N1CCCCc1ccccc1 [Compound 39]	1.3	2.3	3.1	
O=C(O)c1cccc(CCN2C(=O)CC(=O)N(C3CCCCC3)C2=O)c1 [Compound 89]				IC50 [1, 13]: 73 µM; Selectivity [1, 14]: 0.9; IC50 [2, 15]: 64.7 µM
O=C1CC(=O)N(C2CCCCC2)C(=O)N1CCc1ccccc1Cl [Compound 76]				IC50 [1, 13]: 5.2 µM; Selectivity [1, 14]: 7.7; IC50 [2, 15]: 44.5 µM
O=C1CC(=O)N(C2CCc3ccccc32)C(=O)N1CCc1ccc(Cl)cc1 (stereo not drawn) [Compound 32]	8.4	1.7	14.5	
CCC(C)N1C(=O)CC(=O)N(CCc2cccc(C(F)(F)F)c2)C1=O (stereo not drawn) [Compound 108]				IC50 [1, 4]: 3.4 µM; Selectivity [1, 6]: 10.5; IC50 [2, 8]: 35.9 µM
O=C1CC(=O)N(Cc2ccc(Cl)cc2)C(=O)N1CCCCc1ccccc1 [Compound 48]	2.1	3.7	7.7	
O=C1CC(=O)N(CCc2c(Cl)cccc2Cl)C(=O)N1CCc1ccc(Cl)cc1 [Compound 15]	2.7	0.7	1.9	
O=C1CC(=O)N(CC2CCCCC2)C(=O)N1CCc1cccc(C(F)(F)F)c1 [Compound 111]				IC50 [1, 4]: 0.9 µM; Selectivity [1, 6]: 22.1; IC50 [2, 8]: 20.4 µM
COC(=O)[C@H](C)N1C(=O)CC(=O)N(CCc2ccc(Cl)cc2)C1=O [Compound 35]	77.7	1.1	88.2	
O=C1CC(=O)N(CCc2ccc(Br)cc2)C(=O)N1CCc1ccc(Cl)cc1 [Compound 16]	1.6	1.3	2.1	
O=C1CC(=O)N(CCc2ccc3ccccc3c2)C(=O)N1CCCc1ccccc1 [Compound 61]	1	1.3	1.2	
